Values of other authors in publication PMC4617652 (Journal of the American Chemical Society, 2015).
Read-outs that look alike come from different tables or passages of the source. One block for each compound: values may come before it.

pKBH+ of reference base (MeCN ref 24): 24.34
SMILES: C1CCC2=NCCCN2CC1 [DBU]

pKBH+ of reference base (MeCN ref 19): 28.35
SMILES: CC(C)(C)N=P(N1CCCC1)(N1CCCC1)N1CCCC1 [P1-tBu(pyrr)3]

SMILES: CCN=P(N=P(N(C)C)(N(C)C)N(C)C)(N(C)C)N(C)C [P2-Et]
pKBH+ of reference base (MeCN ref 6c): 32.94
